B1: Deletion of domain-4: biotinylated SNHG12 construct with predicted secondary-structure domain 4 deleted (nucleic acid, listed as Homo sapiens)
chain: TGCAAGCCTCTGCCTGCCTTCCTGCGCGCCGTTCCCCGCTAGTCGCTGCTGCTGGCGCGCACTCGCCGGGTTTTTCCTCCCACGGCCTCGAGATGGTGGTGAATGTGGCACGGAGGAGCCGGGCCTTCCAACCCGGTGGGCCCGAGCTCCGAAAGGCCCCCTCGGCAGTGAGAGGGGCGGGAGCCCGCGGGGGCCGCGCCCTTCTCTCGCTTCGGACTGCGCAACGCTGCGCTCTGGGCTGACAGGCGGATAAAACGGTCCCATCAAGACTGAGAAAAAGCACACCAGCTATTGGCACAGCGTGGGCAGTGGGGCCTACAGGATGACTGACTTAGTCTACAGAGATCCCGGCGTACTTAAGCAGATGAAGACTCTTAAGATGACAGAAGGTGATTTTTCTGGTGATCGAGGACTTCCGGGGTAATGACAGTGATGAAATGCAGGGGACCTGGTTGCCCCCAAGTTTCCTGGCAGTGTGTGATACTGAGGAGGTGAGCTTGTTTCTGGAGCTGTGCTTTAAGGTAAAGTTGATCAGCTTAATCCTCCTGATCCCTTTCCCA
modifications: biotin
notes: biotinylated SNHG12 construct with predicted secondary-structure domain 4 deleted

What was measured:
HUVECs = assay: Mitochondrial stress (Seahorse OCR/ECAR, NAD+/NADH) in gapmeR-transfected HUVECs; assay type: cell-based, human
Method: FIGS. 13A-D. Accumulating DNA damage and its effect on mitochondrial stress. (A) Oxidative consumption rate (OCR) and extracellular acidification rate (ECAR). The bars from left to right represent control, control+NR, SNHG12 KD, and SNHG12 KD+NR, respectively. (B) in HUVECs transfected with the indicated gapmeRs in the absence or presence of NR (500 μM, 24 hrs) (n=3). P value was determined by one-way analysis of variance (ANOVA) (Fisher's test). The bars from left to right represent control, control+NR, SNHG12 KD, and SNHG12 KD+NR, respectively. (C) SNHG12 expression or (D) ratio of NAD+ to […] in gapmeR-transfected HUVECs in the absence or presence of NR (n=3). P value was determined by Student's t test. For all panels, values are mean±SD; *p<0.05, **p<0.01; ***p<0.001; ****p<0.0001.
Mitochondrial dysfunction is a hallmark of senescence and reparative responses during oxidative insults requires effective energy metabolism. Oxidative stress-induced DNA damage activates NAD+ consumption pathways (31). Examination of the effect of SNHG12 knockdown on key mitochondrial activities such as mitochondrial respiration and glycolysis in ECs used Seahorse analyses. Loss of SNHG12 decreased the extracellular acidification rate (ECAR) and oxygen consumption rate (OCR) of live cells (FIGS. 13A, 13B). […]

LDLR−/− mice = assay: NR rescue of SNHG12-gapmeR accelerated atherosclerosis in LDLR−/− mice; assay type: in vivo, mouse
Method: FIGS. 5A-G. NR rescued progression of atherosclerotic lesions in LDLR^−/− mice induced by SNHG12 silencing. (A) LDLR^−/− mice were i.v. injected with vehicle control or SNHG12-gapmeR (7.5 mg/kg/mouse) twice per week and placed on an HCD containing NR (400 mg/kg/day) for 12 weeks (n=12 per group). (B) Lesion areas were quantified using ORO area on aortic sinus sections (n=10 per group). Fold change was calculated compared to groups from study 1 as described in FIG. 1. P value was determined by Student's t test. (C) Lesional DNA damage in the vascular endothelium of the aortic arch was quantified in LDLR^−/− mice by γH2AX with nuclear co-localization with DAPI in CD31^+ cells compared to study 1. RT-qPCR analysis for (D) SNHG12 and (E) markers of senescence p16, p21, and p27 from RNA isolated of the aortic intima of mice placed on HCD containing NR (n=6 per group). P value was determined by Student's t test. (F) Acellular areas were measured in the aortic sinus for each of the indicated groups (n=6 per group; 2-3 lesion per mice). (G) TUNEL staining was quantified in the aortic sinus for each of the indicated groups (n=7 per group). P value was determined by Student's t test. For all panels, values are mean±SD; *p<0.05, **p<0.01; ***p<0.001; ****p<0.0001.
Furthermore, administration of the NAD^+ precursor NR can limit DNA damage. […] To assess whether SNHG12-deficient lesion progression involves increased DNA damage, SNHG12-gapmeR was delivered i.v. as described in (FIG. 1F) and the HCD was supplemented with NR (400 mg/kg/day) (FIG. 5A). […] Moreover, NR administration abrogated the SNHG12-gapmeR mediated effect on increased γH2AX foci in lesional ECs in the aortic arch (FIG. 5C). Consistent with less DNA damage, the induction of the senescence markers p16, p21, and p27 fell in the presence of NR compared to LDLR^−/− mice treated with SNHG12-gapmeRs without NR (FIGS. 5D, 5E). […] Taken together, the rescue effects mediated by NR strongly support the findings that the lncRNA SNHG12 regulates the DDR both in vitro and in vivo.

DNA-PK = biological target: T1, DNA-PK (Homo sapiens, UniProt P78527); assay: lncRNA pulldown of biotinylated SNHG12 domain deletion constructs; assay type: binding; settings: pulldown with HUVEC nuclear protein lysate
T1 construct: lncRNA pulldown using nuclear protein extract from HUVECs; endogenous in cells; host or cells: HUVEC nuclear protein lysate
Excerpt: (A) Proteins identified in pulldowns of biotinylated SNHG12; DNA-PK bound specifically to SNHG12 compared to negative control LacZ (n=2, two technical replicates each). (B) Immunoblotting for DNA-PK, ATM, ATR, Ku80, Ku70, p53, and control on nuclear protein lysate from HUVECs after lncRNA pulldown (n=5). (C) Analysis after streptavidin pulldown of nuclear protein lysate derived from the aorta of C57B1/6 mice following two i.v. injections of biotin-labeled SNHG12 compared to LacZ (n=4 per group). (D, E) Predicted secondary structure of SNHG12 with indicated deletions of domains 1˜4 used for subsequent lncRNA pulldown of biotinylated SNHG12 domain deletion constructs (n=4). P value was determined by one-way analysis of variance (ANOVA) (Fisher's test). (F) IP for DNA-PK following RNA isolation and subsequent RT-qPCR for SNHG12 and for negative control HPRT (n=5). […] Immunoblotting for Ku70, Ku80 and DNA-PK and (H) quantification under H2O2 conditions (n=3). […]
To identify potential SNHG12-interacting proteins that may inform mechanisms underlying these findings, biotin-labeled T7 in vitro transcribed SNHG12 or LacZ was incubated with nuclear protein lysate of HUVECs (FIG. 9A). […] Furthermore, biophysical studies determined the equilibrium dissociation constant (KD) for the SNHG12-DNA-PK interaction (1.318E-07 μM) (FIG. 9E). […]

T1 sequence (P78527 whole entry, the tested form may be a part): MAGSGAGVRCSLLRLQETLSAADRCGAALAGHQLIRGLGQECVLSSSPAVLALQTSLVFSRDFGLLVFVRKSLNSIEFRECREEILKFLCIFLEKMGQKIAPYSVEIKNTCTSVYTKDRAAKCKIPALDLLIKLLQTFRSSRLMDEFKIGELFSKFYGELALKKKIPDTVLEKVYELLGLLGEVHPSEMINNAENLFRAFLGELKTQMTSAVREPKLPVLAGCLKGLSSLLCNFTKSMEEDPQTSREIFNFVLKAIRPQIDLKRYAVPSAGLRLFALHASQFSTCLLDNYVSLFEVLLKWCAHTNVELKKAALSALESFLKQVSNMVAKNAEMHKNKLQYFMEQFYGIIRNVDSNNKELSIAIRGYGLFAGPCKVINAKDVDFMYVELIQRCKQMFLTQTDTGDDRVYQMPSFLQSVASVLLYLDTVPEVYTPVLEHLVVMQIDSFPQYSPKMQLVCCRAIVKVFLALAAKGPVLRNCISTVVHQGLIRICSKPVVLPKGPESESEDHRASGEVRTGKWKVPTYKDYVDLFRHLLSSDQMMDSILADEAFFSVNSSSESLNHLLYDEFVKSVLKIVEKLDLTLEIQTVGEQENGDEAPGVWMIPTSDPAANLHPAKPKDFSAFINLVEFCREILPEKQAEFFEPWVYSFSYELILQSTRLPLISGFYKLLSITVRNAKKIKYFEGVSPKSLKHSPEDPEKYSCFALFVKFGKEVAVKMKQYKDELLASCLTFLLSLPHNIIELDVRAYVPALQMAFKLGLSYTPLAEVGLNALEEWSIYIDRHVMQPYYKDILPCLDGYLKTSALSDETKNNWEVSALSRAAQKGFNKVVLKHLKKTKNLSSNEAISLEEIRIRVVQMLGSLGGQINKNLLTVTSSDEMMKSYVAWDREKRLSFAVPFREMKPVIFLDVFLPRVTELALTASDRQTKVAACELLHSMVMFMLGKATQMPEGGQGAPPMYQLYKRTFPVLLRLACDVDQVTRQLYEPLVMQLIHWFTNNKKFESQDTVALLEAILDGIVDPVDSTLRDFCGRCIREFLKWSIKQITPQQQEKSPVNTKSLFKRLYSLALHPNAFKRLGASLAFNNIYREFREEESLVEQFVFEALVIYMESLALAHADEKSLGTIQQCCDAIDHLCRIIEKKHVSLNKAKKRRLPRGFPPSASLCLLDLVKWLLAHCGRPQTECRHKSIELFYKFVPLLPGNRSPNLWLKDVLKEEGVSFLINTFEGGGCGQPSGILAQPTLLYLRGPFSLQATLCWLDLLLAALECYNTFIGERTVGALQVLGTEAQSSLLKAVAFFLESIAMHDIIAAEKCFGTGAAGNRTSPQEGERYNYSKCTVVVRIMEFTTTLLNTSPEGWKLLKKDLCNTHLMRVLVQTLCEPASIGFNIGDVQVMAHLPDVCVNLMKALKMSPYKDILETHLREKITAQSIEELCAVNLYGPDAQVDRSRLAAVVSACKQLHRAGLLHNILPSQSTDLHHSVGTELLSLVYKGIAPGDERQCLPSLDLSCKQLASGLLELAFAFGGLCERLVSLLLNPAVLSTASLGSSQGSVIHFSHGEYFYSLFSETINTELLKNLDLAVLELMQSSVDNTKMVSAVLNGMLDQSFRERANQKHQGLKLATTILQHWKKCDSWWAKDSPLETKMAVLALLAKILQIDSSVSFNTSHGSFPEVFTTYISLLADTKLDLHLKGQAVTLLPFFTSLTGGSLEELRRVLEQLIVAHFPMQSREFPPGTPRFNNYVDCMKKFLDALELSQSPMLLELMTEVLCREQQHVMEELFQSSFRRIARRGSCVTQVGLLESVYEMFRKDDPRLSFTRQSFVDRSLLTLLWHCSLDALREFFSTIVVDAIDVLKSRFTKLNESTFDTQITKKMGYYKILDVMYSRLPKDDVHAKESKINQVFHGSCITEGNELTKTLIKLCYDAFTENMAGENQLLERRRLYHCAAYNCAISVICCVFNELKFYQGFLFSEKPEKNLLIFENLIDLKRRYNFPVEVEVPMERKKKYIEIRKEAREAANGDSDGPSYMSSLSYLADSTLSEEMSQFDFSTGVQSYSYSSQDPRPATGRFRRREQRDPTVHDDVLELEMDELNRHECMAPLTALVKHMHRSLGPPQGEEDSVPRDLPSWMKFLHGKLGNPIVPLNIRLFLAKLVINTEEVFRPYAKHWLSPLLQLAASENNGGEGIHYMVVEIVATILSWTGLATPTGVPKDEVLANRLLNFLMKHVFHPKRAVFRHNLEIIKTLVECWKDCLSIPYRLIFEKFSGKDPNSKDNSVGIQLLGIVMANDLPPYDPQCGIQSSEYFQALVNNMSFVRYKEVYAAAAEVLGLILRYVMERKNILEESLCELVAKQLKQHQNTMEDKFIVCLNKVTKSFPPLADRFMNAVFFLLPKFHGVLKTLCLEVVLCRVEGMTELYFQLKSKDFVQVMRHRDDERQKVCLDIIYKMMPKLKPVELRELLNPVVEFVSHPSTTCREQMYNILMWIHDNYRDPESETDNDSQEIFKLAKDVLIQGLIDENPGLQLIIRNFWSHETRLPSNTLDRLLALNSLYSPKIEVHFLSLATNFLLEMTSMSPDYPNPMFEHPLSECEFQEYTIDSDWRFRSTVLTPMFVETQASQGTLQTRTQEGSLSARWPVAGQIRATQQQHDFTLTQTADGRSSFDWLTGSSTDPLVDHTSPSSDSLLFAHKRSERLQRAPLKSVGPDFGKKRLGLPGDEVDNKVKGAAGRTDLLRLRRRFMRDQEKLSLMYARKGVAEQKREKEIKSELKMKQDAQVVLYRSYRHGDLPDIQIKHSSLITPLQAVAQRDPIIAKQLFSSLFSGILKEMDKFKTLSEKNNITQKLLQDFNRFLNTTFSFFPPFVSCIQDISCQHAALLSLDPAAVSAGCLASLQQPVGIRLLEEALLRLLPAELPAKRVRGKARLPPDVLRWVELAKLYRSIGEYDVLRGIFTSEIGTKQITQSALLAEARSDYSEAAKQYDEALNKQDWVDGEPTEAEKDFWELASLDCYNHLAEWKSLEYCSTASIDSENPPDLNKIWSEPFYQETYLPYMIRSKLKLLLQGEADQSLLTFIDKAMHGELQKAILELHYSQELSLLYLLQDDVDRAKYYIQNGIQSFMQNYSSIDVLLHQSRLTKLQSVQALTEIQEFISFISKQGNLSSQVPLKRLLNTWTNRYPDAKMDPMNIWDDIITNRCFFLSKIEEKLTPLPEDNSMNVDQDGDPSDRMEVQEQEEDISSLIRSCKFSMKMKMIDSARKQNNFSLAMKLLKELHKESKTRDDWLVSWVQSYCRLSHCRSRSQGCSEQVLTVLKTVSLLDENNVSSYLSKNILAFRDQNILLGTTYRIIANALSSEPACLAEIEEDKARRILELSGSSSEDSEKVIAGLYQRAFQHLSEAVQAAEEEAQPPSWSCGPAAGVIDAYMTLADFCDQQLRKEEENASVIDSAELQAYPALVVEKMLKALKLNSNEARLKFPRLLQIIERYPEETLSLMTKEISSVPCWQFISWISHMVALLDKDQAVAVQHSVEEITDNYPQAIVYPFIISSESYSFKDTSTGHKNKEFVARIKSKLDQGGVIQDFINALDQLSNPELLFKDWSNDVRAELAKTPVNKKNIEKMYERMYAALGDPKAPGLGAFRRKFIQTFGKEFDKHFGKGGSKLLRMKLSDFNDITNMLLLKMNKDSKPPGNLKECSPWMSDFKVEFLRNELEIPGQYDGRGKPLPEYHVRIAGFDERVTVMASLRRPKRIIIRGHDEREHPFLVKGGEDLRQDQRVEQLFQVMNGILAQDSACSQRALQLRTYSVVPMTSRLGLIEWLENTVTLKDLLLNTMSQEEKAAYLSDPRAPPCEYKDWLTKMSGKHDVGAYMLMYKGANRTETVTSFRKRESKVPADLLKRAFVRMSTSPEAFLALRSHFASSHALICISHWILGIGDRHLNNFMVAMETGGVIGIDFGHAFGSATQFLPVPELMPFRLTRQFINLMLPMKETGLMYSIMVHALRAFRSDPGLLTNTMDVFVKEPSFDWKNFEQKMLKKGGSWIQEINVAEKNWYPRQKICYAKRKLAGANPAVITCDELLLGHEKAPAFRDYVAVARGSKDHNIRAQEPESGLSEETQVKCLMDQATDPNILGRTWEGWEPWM

Molecule | SNHG12 expression (HUVECs; NR 500 μM, 24 hrs) | NAD+/NADH ratio (HUVECs; gapmeR-transfected HUVECs, absence or presence of NR) | increase in lesion areas by ORO between SNHG12-gapmeR and control-gapmeR groups on NR (LDLR−/− mice; HCD with NR 400 mg/kg/day, 12 weeks, P=0.1729) | SNHG12-gapmeR mediated increase of γH2AX foci in lesional ECs in the aortic arch (LDLR−/− mice; NR 400 mg/kg/day, 12 weeks) | induction of senescence markers p16, p21, and p27 compared to SNHG12-gapmeR without NR (LDLR−/− mice; aortic intima, NR 400 mg/kg/day) | TUNEL positive cells compared to groups without NR (LDLR−/− mice; aortic sinus, NR 400 mg/kg/day) | differences in plaque necrosis (LDLR−/− mice; aortic sinus, NR 400 mg/kg/day) | reduction of DNA-PK binding (DNA-PK) [%]
NC(=O)c1ccc[n+]([C@@H]2O[C@H](CO)[C@@H](O)[C@H]2O)c1 [NR, Nicotinamide Riboside] | did not affect | partially rescued | no significant | abrogated | fell | reduced | eliminated differences | 
B1 |  |  |  |  |  |  |  | ~50

From US20220010310A1, “An lncRNA integrates a DNA-PK-mediated DNA damage response and vascular senescence” (The Brigham and Women`s Hospital, Inc., priority 2018, published 2022)
